Earlier results in patent US20110039787A1, “COMPOSITIONS, KITS AND METHODS FOR TREATING BENIGN PROSTATE HYPERPLASIA” (priority 2009, published 2011).

System: BPH
Conditions: cited from earlier work

Compound | IPSS change (maximum of known medicinal treatments, FIG. 2) (AUA Guideline on the Management of BPH (2006), historical comparison) | Maximum reduction in mean IPSS (preliminary study, European Urology 54 (2008) 170-180)
CCOc1ccccc1OCCN[C@H](C)Cc1ccc(OC)c(S(N)(=O)=O)c1 [Tamsulosin] | approximately −7.5 | –
cetrorelix glucoronate | – | −5.4 to −5.9
